Reference: ChEMBL document CHEMBL1155707, “New lipopeptides from the Caribbean cyanobacterium Lyngbya majuscula” (J Nat Prod, 2001)

Experiments:
Type in all cases: functional, cell-based
P388 = assay: Cytotoxicity against mouse P388 cells
A549 = assay: Cytotoxicity against human A549 cells
HT-29 = assay: Cytotoxicity against human HT-29 cells
SK-MEL-28 = assay: Cytotoxicity against human SK-MEL-28 cells

Measured: IC50

C[C@@H](c1nccs1)N(C)C(=O)[C@H](C[C@H](C)C(Cl)(Cl)Cl)NC(=O)C[C@H](C)C(Cl)(Cl)Cl [PSEUDODYSIDENIN]
> 1 µg/mL: all assays above
